Counter-ions that a name gives are not always drawn. Like-named read-outs stand apart in the source and are kept apart here.
Tests used:
[1] = Phase I clinical trial: plasma concentrations after weekly intravenous infusion (pharmacokinetics); assay type: in vivo, human; conditions: human, plasma, iv; for concentration at 1 h / concentration at 1 h after end of infusion: 1 hr after infusion; for concentration at 24 h after end of infusion / concentration at 24 h: 24 hr after infusion; for concentration at 12 h after end of infusion / concentration at 12 h: 12 hr after infusion; for concentration at 2 h / concentration at 2 h after end of infusion: 2 hr after infusion; for concentration at 4 h / concentration at 4 h after end of infusion: 4 hr after infusion; for Cmax: intravenous administration of a single dose, read-out: estimated Cmax
Procedure: (§1) An open-label, dose-escalating, multiple-dose study to define the safety, tolerability and pharmacokinetics of weekly intravenous administration of (4-Methoxy-phenyl)-methyl-(2-methyl-quinazolin-4-yl)-amine hydrochloride was performed. A dosing schedule (each 4 week cycle) was performed for (4-Methoxy-phenyl)-methyl-(2-methyl-quinazolin-4-yl)-amine hydrochloride weekly for 3 weeks with no infusion on the fourth week of each cycle. Subjects with refractory solid tumors were enrolled in cohorts of 3. During Cycle 1, subjects were hospitalized during each infusion of (4-Methoxy-phenyl)-methyl-(2-methyl-quinazolin-4-yl)-amine hydrochloride and remained for observation and safety evaluation for approximately 24 hours following the end of the infusion. All subjects had continuous telemetry for 2 hours prior to infusion, for 1-2 hour infusion and for 3 hours after the end of the infusion. Any clinically significant electrocardiographic (ECG) wave form abnormality was recorded and prolongation of the monitoring period extended at the discretion of the principal investigator.
Blood samples were collected prior to dosing, at the end of the infusion, and 1, 2, 4, 6, 12, and 24 hours after the infusion. This sampling schedule occurred on Days 1 and 15 with administration of the first and third doses. Samples were collected into tubes containing EDTA and stored on ice until centrifuged. The plasma was frozen at approximately −20° C. in labeled, plastic tubes, or vials, and tightly capped. The samples were shipped to Myriad Pharmaceuticals, Inc. for analysis of (4-Methoxy-phenyl)-methyl-(2-methyl-quinazolin-4-yl)-amine hydrochloride. Pharmacokinetic analysis was conducted using WinNonlin 4.0®.

[2] = Phase I clinical trial: safety and tolerability in subjects with refractory solid tumors; assay type: in vivo, human
Procedure: as §1
Electrocardiograms were obtained prior to starting the infusion and within 30 minutes of the end of infusion for each infusion of the first cycle. Electrocardiograms on Day 1 were obtained in triplicate 5 minutes apart.
Neurocognitive assessments were made by administration of the Mini-Mental State Examination (MMSE), the Hopkins Verbal Learning and timed Grooved Pegboard tests before administration of the intravenous infusion and approximately 24 hours of the infusion at each weekly administration of the first cycle.
On days 1, 8, and 15 of each cycle, vital signs were obtained prior to the first dose, at 15, 30, and 60 minutes after the initiation of the infusion, and at 0.5, 1, 1.5, 2, and 4 hours after the end of the intravenous infusion. Vital signs at all time points beyond the start of the intravenous infusion included heart rate, blood pressure and respirations. Temperature was measured at the end of the infusion and 4 hours later.
Individual subjects were allowed to continue on repeated weekly×3 administrations every 28 days with no dose increase provided there was no unacceptable toxicity or disease progression.
Tumor response was evaluated by response evaluation criteria in solid tumors (RECIST) criteria. To prevent sever hypersensitivity reactions due to Cremophor® EL, subjects were premedicated with oral dexamethasone (20 mg) administered approximately 12 and 6 hours before the intravenous infusion with (4-Methoxy-phenyl)-methyl-(2-methyl-quinazolin-4-yl)-amine hydrochloride, diphenhydramine (50 mg) or its equivalent administered intravenously 30-60 minutes before (4-Methoxy-phenyl)-methyl-(2-methyl-quinazolin-4-yl)-amine hydrochloride, and cimetidine (300 mg) or ranitidine (50 mg) administered intravenously 30-60 minutes before (4-Methoxy-phenyl)-methyl-(2-methyl-quinazolin-4-yl)-amine hydrochloride.

[3] = 1 mg/m^2, Day 1, 1.0 mg/m^2 i.v., infusion 1 hr, LLOQ 1 ng/mL
[4] = 1 mg/m^2, Day 15, 1.0 mg/m^2 i.v., infusion 1 hr, LLOQ 1 ng/mL
[5] = 1.5 mg/m^2, Day 15, 1.5 mg/m^2 i.v., infusion 1 hr, LLOQ 1 ng/mL
[6] = 2.1 mg/m^2, Day 1, 2.1 mg/m^2 i.v., infusion 1 hr, LLOQ 1 ng/mL
[7] = 2.1 mg/m^2, Day 15, 2.1 mg/m^2 i.v., infusion 1 hr, LLOQ 1 ng/mL
[8] = 2.7 mg/m^2, Day 1, 2.7 mg/m^2 i.v., infusion 1 hr, LLOQ 1 ng/mL
[9] = 3.3 mg/m^2, Day 1, 3.3 mg/m^2 i.v., infusion 2 hr, LLOQ 1 ng/mL
[10] = 3.3 mg/m^2, Day 15, 3.3 mg/m^2 i.v., infusion 2 hr, LLOQ 1 ng/mL
[11] = 3.9 mg/m^2, Day 15, 3.9 mg/m^2 i.v., infusion 2 hr, LLOQ 1 ng/mL
[12] = 4.5 mg/m^2, Day 15, 4.5 mg/m^2 i.v., infusion 2 hr, LLOQ 1 ng/mL

COc1ccc(N(C)c2nc(C)nc3ccccc23)cc1 [(4-Methoxy-phenyl)-methyl-(2-methyl-quinazolin-4-yl)-amine hydrochloride]
concentration at 1 h ([1]; 0.3 mg/m^2, Day 15, 0.3 mg/m^2 i.v., infusion 1 hr, LLOQ 1 ng/mL): 1.43 ng/mL
concentration at 24 h after end of infusion ([1]; 0.6 mg/m^2, Day 1, 0.6 mg/m^2 i.v., infusion 1 hr, LLOQ 1 ng/mL): 5.89 ng/mL
concentration at 12 h after end of infusion [1, 3]: 3.62 ng/mL
concentration at 24 h after end of infusion [1, 3]: 1.98 ng/mL
concentration at 1 h [1, 4]: 2.24 ng/mL
concentration at 2 h [1, 4]: 1.23 ng/mL
concentration at 4 h [1, 4]: 1.26 ng/mL
concentration at 12 h after end of infusion ([1]; 1.5 mg/m^2, Day 1, 1.5 mg/m^2 i.v., infusion 1 hr, LLOQ 1 ng/mL): 1.95 ng/mL
concentration at 4 h [1, 5]: 1.01 ng/mL
concentration at 6 h ([1]; 1.5 mg/m^2, Day 15, 1.5 mg/m^2 i.v., infusion 1 hr, 6 hr after infusion, LLOQ 1 ng/mL): 1.47 ng/mL
concentration at 12 h [1, 5]: 2.24 ng/mL
concentration at 24 h [1, 5]: 1.63 ng/mL
concentration at 1 h after end of infusion [1, 6]: 4.06 ng/mL
concentration at 2 h after end of infusion [1, 6]: 3.28 ng/mL
concentration at 4 h after end of infusion [1, 6]: 2.64 ng/mL
concentration at 6 h after end of infusion ([1]; 2.1 mg/m^2, Day 1, 2.1 mg/m^2 i.v., infusion 1 hr, 6 hr after infusion, LLOQ 1 ng/mL): 1.12 ng/mL
concentration at 12 h after end of infusion [1, 6]: 1.09 ng/mL
concentration at 1 h [1, 7]: 4.81 ng/mL
concentration at 4 h [1, 7]: 2.05 ng/mL
concentration at 12 h [1, 7]: 1.09 ng/mL
concentration at 24 h [1, 7]: 2.63 ng/mL
concentration at 1 h after end of infusion [1, 8]: 6.16 ng/mL
concentration at 2 h after end of infusion [1, 8]: 4.37 ng/mL
concentration at 4 h after end of infusion [1, 8]: 3.16 ng/mL
concentration at 6 h after end of infusion ([1]; 2.7 mg/m^2, Day 1, 2.7 mg/m^2 i.v., infusion 1 hr, 6 hr after infusion, LLOQ 1 ng/mL): 2.09 ng/mL
concentration at 12 h after end of infusion [1, 8]: 2.35 ng/mL
concentration at 24 h after end of infusion [1, 8]: 1.36 ng/mL
concentration at 12 h ([1]; 2.7 mg/m^2, Day 15, 2.7 mg/m^2 i.v., infusion 1 hr, LLOQ 1 ng/mL): 3.95 ng/mL
concentration at 2 h [1, 9]: 6.03 ng/mL
concentration at 24 h [1, 9]: 1.73 ng/mL
concentration at 1 h ([1]; 3.3 mg/m^2, Day 15, 3.3 mg/m^2 i.v., infusion 1 hr, LLOQ 1 ng/mL): 14.7 ng/mL
concentration at 1 h [1, 10]: 6.84 ng/mL
concentration at 2 h [1, 10]: 3.8 ng/mL
concentration at 24 h [1, 10]: 1.48 ng/mL
concentration at 1 h [1, 11]: 10.6 ng/mL
concentration at 2 h [1, 11]: 10.4 ng/mL
concentration at 4 h [1, 11]: 8.24 ng/mL
concentration at 24 h ([1]; 4.5 mg/m^2, Day 1, 4.5 mg/m^2 i.v., infusion 2 hr, LLOQ 1 ng/mL): 1.17 ng/mL
concentration at 1 h [1, 12]: 13.6 ng/mL
concentration at 2 h [1, 12]: 13.1 ng/mL
Cmax ([1]; Day 1): ~14 ng/mL
Cmax ([1]; Day 15): ~26 ng/mL
bradycardia ([2]; Phase 1 Trial): occasional episodes of bradycardia
dose limiting toxicity ([2]; Phase 1 Trial): vascular in nature, manifested by an acute coronary syndrome
intratumor bleeding ([2]; Phase 1 Trial): incidences of intratumor bleeding
systolic blood pressure ([2]; Phase 1 Trial): dose-related increase
effects on cardiac conduction (PR, QRS or QTc) ([2]; Phase 1 Trial, ECG): no significant effects
cytotoxity peripherally ([2]; Phase 1 Trial, at the administered doses): no evidence of cytotoxity peripherally
safety and tolerability ([2]; Phase 1 Trial, weekly intravenous administration): safe and tolerable
dose ranges found to be safely tolerated ([2]; human patients): less than 3.3 mg/m^2
